In brackets after ≈: the same amount, converted by molar mass. Several values for one entry are separate records, joined by “and”; a condition that tells them apart may be missing. Identical values can stand only once. Like-named read-outs stand apart in the source and are kept apart here.
Legend:
[1] = tested on: Staph. epiderm. clin.; test: Antimicrobic activity, in vitro (CIM), first clinical isolate; type: cell-based, Staph. epiderm. (isolated clinically)
From the text: (§1) Chim.Farm.119, p.181, 1980.
(§2) Antimicrobic activity, in vitro.
(§3) CIM^(1) values (mcg/ml)
(§4) ^(1) CIM = Mic = Minimal inhibitory concentration
(§5) ^(2) Clin. = Isolated clinically.

[2] = tested on: Proteus vulgaris; test: Antimicrobic activity, in vitro (CIM); type: cell-based
From the text: as §1, §2, §3, §4

[3] = tested on: Candida albicans; test: Antimicrobic activity, in vitro (CIM); type: cell-based
From the text: as §1, §2, §3, §4

[4] = tested on: Pseudomonas aeruginosa; test: Antimicrobic activity, in vitro (CIM); type: cell-based
From the text: as §1, §2, §3, §4

[5] = tested on: Escherichia coli 418; test: Antimicrobic activity, in vitro (CIM); type: cell-based; conditions: Escherichia coli 418, in vitro
From the text: as §1, §2, §3, §4

[6] = tested on: staphylococcus aureus; design: unit not given beside the values; conditions: oral, 1 treatment
[7] = tested on: Micrococcus luteus 9341; test: Antimicrobic activity, in vitro (CIM); type: cell-based, Micrococcus luteus 9341 (ATCC); conditions: Micrococcus luteus 9341, in vitro
From the text: as §1, §2, §3, §4
(§6) ^(3) The 4digit strains are ATCC's

[8] = tested on: Staph. epiderm. clin.; test: Antimicrobic activity, in vitro (CIM), second clinical isolate; type: cell-based, Staph. epiderm. (isolated clinically)
From the text: as §1, §2, §3, §4, §5

[9] = tested on: rat; test: Oral acute toxicity in the rat; type: in vivo
From the text: as §1
(§7) Oral acute toxicity in the rat

[10] = tested on: Staph. aureus 6538; test: Antimicrobic activity, in vitro (CIM); type: cell-based, Staph. aureus 6538 (ATCC); conditions: Staph. aureus 6538, in vitro
From the text: as §1, §2, §3, §4, §6

[11] = tested on: Strept. faecalis 8043; test: Antimicrobic activity, in vitro (CIM); type: cell-based, Strept. faecalis 8043 (ATCC); conditions: Strept. faecalis 8043, in vitro
From the text: as §1, §2, §3, §4, §6

[12] = tested on: Staph. aureus 1414; test: Antimicrobic activity, in vitro (CIM); type: cell-based, Staph. aureus 1414 (ATCC); conditions: Staph. aureus 1414, in vitro
From the text: as §1, §2, §3, §4, §6

[13] = tested on: rabbit mucoproduction; test: Activity on the rabbit mucoproduction (method of Scuri et al.); type: in vivo
From the text: as §1
Activity on the rabbit mucoproduction.

[14] = tested on: staphylococcus aureus; design: unit not given beside the values; conditions: intramuscular
From the text: In Table 4, the activity data relating to the mucus production in the rabbit is reported, according to the method by Scuri et al., published in Boll. Chim.Farm.119, p.181, 1980.

[15] = tested on: Serr. marcescens cl.; test: Antimicrobic activity, in vitro (CIM); type: cell-based, Serr. marcescens (isolated clinically)
From the text: as §1, §2, §3, §4, §5

[16] = Oral acute toxicity in the rat; type: in vivo; conditions: in vivo, rat, read-out: DL50 (the source's name)
From the text: as §1, §7

[17] = read-out: CIM (Mic, minimal inhibitory concentration)
[18] = Staphylococcus aureus, read-out: CIM (Mic, minimal inhibitory concentration)

**Q.** With `CC[C@H]1OC(=O)[C@H](C)[C@@H](O[C@H]2C[C@@](C)(OC)[C@@H](O)[C@H](C)O2)[C@H](C)[C@@H](O[C@@H]2O[C@H](C)C[C@H](N(C)C)[C@H]2O)[C@](C)(O)C[C@@H](C)C(=O)[C@H](C)[C@@H](O)[C@]1(C)O.O=C(O)c1ccccc1C(=O)N1CCSC1` [CO/1316, erythromycin salt of o-carbonyl(1-thiazolidinyl)-benzoic acid] as the compound, how does the “CIM (Mic, minimal inhibitory concentration)” value [1] read?
**A.** 10 µg/mL

**Q.** And the “CIM (Mic, minimal inhibitory concentration)” value [2]?
**A.** 5 µg/mL

**Q.** What about the “CIM (Mic, minimal inhibitory concentration)” value [3] of the same compound?
**A.** 100 µg/mL

**Q.** What about the “CIM (Mic, minimal inhibitory concentration)” value ([4]; in vitro) of the same compound?
**A.** +100 mcg/ml

**Q.** What about the “CIM (Mic, minimal inhibitory concentration)” value [5] of the same compound?
**A.** 50 µg/mL

**Q.** What about the DI50 ([6]; medium infection) of the same compound?
**A.** 350 and 510

**Q.** And the DI50 ([6]; serious infection)?
**A.** 560 and 720

**Q.** And the “Solubility in 95% ethanol” value (95% ethanol)?
**A.** 32%

**Q.** And the Solubility in acetone (acetone)?
**A.** 50%

**Q.** And the Solubility in chloroform (chloroform)?
**A.** 50%

**Q.** What about the Solubility in dioxane (dioxane) of the same compound?
**A.** 15%

**Q.** What about the Solubility in ethanol (ethanol) of the same compound?
**A.** 50%

**Q.** And the “Solubility in ethyl ether” value (ethyl ether)?
**A.** 0.1%

**Q.** What about the Solubility in methanol (methanol) of the same compound?
**A.** 57%

**Q.** And the Solubility in n-hexane (n-hexane)?
**A.** pratically insoluble

**Q.** What about the Solubility in toluene (toluene) of the same compound?
**A.** 0.3%

**Q.** And the Solubility in water (water, ambient temperature)?
**A.** 3 % W/V

**Q.** What about the “CIM (Mic, minimal inhibitory concentration)” value [7] of the same compound?
**A.** 0.1 µg/mL

**Q.** What about the “CIM (Mic, minimal inhibitory concentration)” value [8] of the same compound?
**A.** 0.1 µg/mL

**Q.** What about the “acute oral toxicity compared with erythromycin base” value [9] of the same compound?
**A.** substantially coincides with that of the erythromycin base

**Q.** What about the DL50 ([9]; rat) of the same compound?
**A.** > 5.0 g/kg

**Q.** And the “CIM (Mic, minimal inhibitory concentration)” value [10]?
**A.** 10 µg/mL

**Q.** What about the “CIM (Mic, minimal inhibitory concentration)” value [11] of the same compound?
**A.** 0.6 µg/mL

**Q.** And the “CIM (Mic, minimal inhibitory concentration)” value [12]?
**A.** 10 µg/mL

**Q.** What about the “Anim. with increase / Treated anim.” value ([13]; 40 mg/kg ev) of the same compound?
**A.** 9/14

**Q.** And the “Anim. with increase / Treated anim., %” value ([13]; 40 mg/kg ev)?
**A.** 64/2

**Q.** And the “Mucoproduction: Var. %” value ([13]; 40 mg/kg ev)?
**A.** +45%

**Q.** And the DI50 ([14]; medium infection, 5 treatments)?
**A.** 76 and 152

**Q.** What about the DI50 ([14]; serious infection, 1 treatment) of the same compound?
**A.** 210 and 390

**Q.** And the “CIM (Mic, minimal inhibitory concentration)” value [15]?
**A.** 100 µg/mL

**Q.** Which MIC [1, 17] does the source give for `CC[C@H]1OC(=O)[C@H](C)[C@@H](O[C@H]2C[C@@](C)(OC)[C@@H](O)[C@H](C)O2)[C@H](C)[C@@H](O[C@@H]2O[C@H](C)C[C@H](N(C)C)[C@H]2O)[C@](C)(O)C[C@@H](C)C(=O)[C@H](C)[C@@H](O)[C@]1(C)O` [Erythromycin] here?
**A.** 10 µg/mL (≈ 13.6 µM)

**Q.** And the MIC [2, 17]?
**A.** 2.5 µg/mL (≈ 3.41 µM)

**Q.** And the MIC [3, 17]?
**A.** 100 µg/mL (≈ 136 µM)

**Q.** What about the MIC [4, 17] of the same compound?
**A.** 100 µg/mL (≈ 136 µM)

**Q.** What about the MIC [5, 17] of the same compound?
**A.** 25 µg/mL (≈ 34.1 µM)

**Q.** And the MIC [7, 17]?
**A.** 0.1 µg/mL (≈ 0.136 µM)

**Q.** And the MIC [8, 17]?
**A.** 0.1 µg/mL (≈ 0.136 µM)

**Q.** And the LD50 [16]?
**A.** > 5000 mg/kg

**Q.** And the MIC [10, 18]?
**A.** 10 µg/mL (≈ 13.6 µM)

**Q.** And the MIC ([11]; Enterococcus faecalis, read-out: CIM (Mic, minimal inhibitory concentration))?
**A.** 0.3 µg/mL (≈ 0.409 µM)

**Q.** What about the MIC [12, 18] of the same compound?
**A.** 10 µg/mL (≈ 13.6 µM)

**Q.** What about the “Anim. with increase / Treated anim.” value ([13]; 30 mg/kg ev) of the same compound?
**A.** 0/10

**Q.** What about the “Mucoproduction: Var. %” value ([13]; 30 mg/kg ev) of the same compound?
**A.** Inactive

**Q.** What about the MIC ([15]; Serratia marcescens, read-out: CIM (Mic, minimal inhibitory concentration)) of the same compound?
**A.** 50 µg/mL (≈ 68.1 µM)
